# Results taken from US20180008587A1, “THIOHYDANTOIN ANDROGEN RECEPTOR ANTAGONISTS FOR THE TREATMENT OF CANCER” (Jaressen Pharmaceutica NV, priority 2016, published 2018).
# Substitutions are numbered along the chain they refer to. “And” between values parts separate entries of the source, which are not always exact repeats. Identical values can stand only once. Like-named read-outs stand apart in the source and are kept apart here.
# Assays:
# [1] = molecular target: T1, wild-type Androgen Receptor (AR-wt) (Homo sapiens, UniProt P10275); assay: LNCaP-AR-wt ANT reporter assay (ARE firefly luciferase, antagonist mode); type: cell-based; details: for IC50: antagonist mode, 400 pM R-1881 challenge, −Log10(IC50 [Molar]), read-out: LNCaP-AR-wt ANT pIC50 (converted); for Emax: read-out: LNCaP-AR-wt ANT MAX % Inh
# T1 construct: expressed in transfected cells; host or cells: LNCaP (LNCaP AR (cs))
# T1 sequence (P10275 1-920): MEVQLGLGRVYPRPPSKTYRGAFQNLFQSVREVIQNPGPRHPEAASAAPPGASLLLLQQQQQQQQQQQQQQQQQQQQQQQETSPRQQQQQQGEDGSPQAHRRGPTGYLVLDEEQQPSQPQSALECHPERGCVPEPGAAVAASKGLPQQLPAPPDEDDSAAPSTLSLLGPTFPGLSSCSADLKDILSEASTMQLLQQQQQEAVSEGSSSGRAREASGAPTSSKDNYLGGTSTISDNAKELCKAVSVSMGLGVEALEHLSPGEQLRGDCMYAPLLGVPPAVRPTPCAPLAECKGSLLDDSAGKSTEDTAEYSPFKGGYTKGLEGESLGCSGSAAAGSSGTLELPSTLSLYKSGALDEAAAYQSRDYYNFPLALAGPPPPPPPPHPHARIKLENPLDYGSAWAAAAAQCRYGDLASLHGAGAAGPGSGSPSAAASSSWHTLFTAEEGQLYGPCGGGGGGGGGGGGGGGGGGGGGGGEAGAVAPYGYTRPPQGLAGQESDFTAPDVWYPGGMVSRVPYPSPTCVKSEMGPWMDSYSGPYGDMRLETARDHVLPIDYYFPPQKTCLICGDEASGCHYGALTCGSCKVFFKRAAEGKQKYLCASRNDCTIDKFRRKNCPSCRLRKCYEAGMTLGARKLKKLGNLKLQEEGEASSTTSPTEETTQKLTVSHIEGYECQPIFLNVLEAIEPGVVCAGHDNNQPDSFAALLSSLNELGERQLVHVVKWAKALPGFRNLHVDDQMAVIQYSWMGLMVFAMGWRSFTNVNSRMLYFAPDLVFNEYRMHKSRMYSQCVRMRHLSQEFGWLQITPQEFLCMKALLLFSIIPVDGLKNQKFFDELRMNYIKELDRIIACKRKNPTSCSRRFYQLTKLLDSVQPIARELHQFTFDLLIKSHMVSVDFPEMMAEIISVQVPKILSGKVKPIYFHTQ
# How it was run: (§1)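 LNCaP cells stably expressing wild-type or F876L AR (puromycin-selected pooled populations) were cultured in charcoal-stripped serum medium. In antagonist mode, agonist challenge was 400 pM for wild-type and 600 pM for F876L.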
# [2] = molecular target: T1, wild-type Androgen Receptor (AR-wt); assay: LNCaP-AR-wt AG reporter assay (ARE firefly luciferase, agonist mode); type: cell-based; details: for Emax: read-out: LNCaP-AR-wt AG MAX % Stim
# How it was run: (§2)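 Read-out is luciferase luminescence taken 1 h after Steady-Glo addition, following 20-24 h compound exposure at 37 °C in LNCaP pools stably carrying wild-type or F876L AR. Cells were grown in charcoal-stripped serum. Antagonist wells received agonist at 400 pM (WT) or 600 pM (F876L).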
# [3] = molecular target: T2, F876L mutant Androgen Receptor (AR-F876L) (Homo sapiens, UniProt P10275, F877L); assay: LNCaP-AR-F876L AG reporter assay (ARE firefly luciferase, agonist mode); type: cell-based; details: for Emax: read-out: LNCaP-AR-F876L AG MAX % Stim
# T2 construct: expressed in transfected cells; host or cells: LNCaP (LNCaP F876L)
# T2 sequence (P10275 1-920 F877L): T1 sequence (P10275 1-920) with F877L
# How it was run: as §2
# [4] = molecular target: T2, F876L mutant Androgen Receptor (AR-F876L); assay: LNCaP-AR-F876L ANT reporter assay (ARE firefly luciferase, antagonist mode); type: cell-based; details: for Emax: read-out: LNCaP-AR-F876L ANT MAX % Inh; for IC50: read-out: LNCaP-AR-F876L ANT pIC50 (converted)
# How it was run: as §1
# [5] = system: androgen dependent signaling; assay: Hershberger assay; type: in vivo, rat
# Procedure: The effect of AR antagonists on androgen dependent signaling in vivo was assessed using the Hershberger assay. In this assay, peripubertal castrated male Sprague-Dawley rats were administered AR antagonists described herein in the presence of testosterone (0.4 mg/kg testosterone propionate) and the weights of androgen dependent organs measured. Dosing was continued for 10 days and measurements taken 24 h after the last dose. The extent of antagonism of AR and consequent inhibition of organ growth was evaluated by comparison to the castration control. Compounds of Formula (I) were dosed orally QD and an endpoint assessment made by change in weight of 5 androgen sensitive organs (ASO): Paired Cowper's Glands (CG), Seminal Vesicles with Fluids and Coagulating Glands (SVCG), Glans Penis (GP), Ventral Prostate (VP) and Levator Ani-Bulbocavernosus Complex (LABC)). According to assay guidelines, statistically significant suppression of ASO is required in 2 of 5 organs for a compound to be classified as an anti-androgen (analysis was performed by t-test/Mann-Whitney).
# Compounds defined herein were administered at the indicated dose (mg/kg) and flutamide (FT), positive control, at 3 mg/kg. All compounds were co-administered with testosterone propionate (TP, 0.4 mg/kg) which was also administered alone, untreated control, (castrated only rats served as the control for complete androgen blockade). A statistically significant change in ASO achieved in at least 2 of 5 organs was indicative of an active compound.
# [6] = maximum % inhibition of R1881 control response over tested concentration range
# [7] = agonist mode, −Log10(EC50 [Molar]), read-out: LNCaP-AR-wt AG pEC50 (converted)
# [8] = maximum % stimulation (agonist response) over tested concentration range
# [9] = agonist mode, −Log10(EC50 [Molar]), read-out: LNCaP-AR-F876L AG pEC50 (converted)
# [10] = 3 mg/kg orally QD 10 days with testosterone propionate 0.4 mg/kg, castrated rats, mean ± SD (n=6)
Structure (SMILES),IC50 [1] [nM],IC50 [4] [nM],"Emax [1, 6] [%]","EC50 [2, 7] [nM]","Emax [2, 8] [%]","EC50 [3, 9] [nM]","Emax [3, 8] [%]","Emax [4, 6] [%]",Emax [1] [%],EC50 [2] [nM],Emax [2] [%],EC50 [3] [nM],Emax [3] [%],Emax [4] [%],"reduction in ASO versus TP control ([5]; all 5 organs, p≦0.05)","ASO Organ Growth (% of TP control) SVCG [5, 10]","ASO Organ Growth (% of TP control) VP [5, 10]"
"CN1CCN(CCCc2ccc(N3C(=S)N(c4cnc(C#N)c(C(F)(F)F)c4)C(=O)C34CCC4)cc2)CC1 [Cpd 43, 5-[8-[4-[3-(4-methylpiperazin-1-yl)propyl]phenyl]-5-oxo-7-thioxo-6,8-diazaspiro[3.4]octan-6-yl]-3-(trifluoromethyl)pyridine-2-carbonitrile]",501,245,–,–,–,–,–,–,97.3,> 15100,0.7,> 15100,0.4,98.9,significant reduction in ASO,–,–
"N#Cc1ncc(N2C(=O)C3(CCC3)N(c3ccc(C(=O)NCCCN4CCCC4)c(F)c3)C2=S)cc1C(F)(F)F [Cpd 118, 4-[6-[6-cyano-5-(trifluoromethyl)-3-pyridyl]-5-oxo-7-thioxo-6,8-diazaspiro[3.4]octan-8-yl]-2-fluoro-N-(3-pyrrolidin-1-ylpropyl)benzamide]",1100,158,101,> 15100,0.4,> 15100,3.9,99.4,–,–,–,–,–,–,–,–,–
"Cc1cc(N2C(=O)C3(CCC3)N(c3ccc(-c4cccnc4C)cc3)C2=S)cnc1C#N [Cpd 119, 3-methyl-5-[8-[4-(2-methyl-3-pyridyl)phenyl]-5-oxo-7-thioxo-6,8-diazaspiro[3.4]octan-6-yl]pyridine-2-carbonitrile]",112,158,97.7,> 15100,2.2,> 15100,3.9,96,–,–,–,–,–,–,–,–,–
"CC(C)C(=O)Nc1ccc([N+](=O)[O-])c(C(F)(F)F)c1 [Flutamide, flutamide, reference compound]",–,–,–,–,–,–,–,–,–,–,–,–,–,–,–,22.5 ± 22.9 % of TP control and 16.6 ± 16.3 % of TP control,31.1 ± 29.2 % of TP control and 24.4 ± 35.5 % of TP control

# Continued, in another order:
IC50 [1] [nM],IC50 [4] [nM],"Emax [1, 6] [%]","EC50 [2, 7] [nM]","Emax [2, 8] [%]","EC50 [3, 9] [nM]","Emax [3, 8] [%]","Emax [4, 6] [%]",Structure (SMILES),Emax [1] [%],EC50 [2] [nM],Emax [2] [%],EC50 [3] [nM],Emax [3] [%],Emax [4] [%],"reduction in ASO versus TP control ([5]; all 5 organs, p≦0.05)","ASO Organ Growth (% of TP control) SVCG [5, 10]","ASO Organ Growth (% of TP control) VP [5, 10]"
363,224,100,> 15100,1.2,> 15100,3.9,98.8,"N#Cc1ccc(N2C(=S)N(c3cnc(C#N)c(C(F)(F)F)c3)C(=O)C23CCC3)cc1 [Cpd 120, 5-[8-(4-cyanophenyl)-5-oxo-7-thioxo-6,8-diazaspiro[3.4]octan-6-yl]-3-(trifluoromethyl)pyridine-2-carbonitrile]",–,–,–,–,–,–,–,–,–
2750,575,93.6,> 15100,1.2,> 15100,3,98.7,"CN1CCN(CCNC(=O)c2ccc(N3C(=S)N(c4cnc(C#N)c(C(F)(F)F)c4)C(=O)C34CCC4)cc2F)CC1 [Cpd 121, 4-[6-[6-cyano-5-(trifluoromethyl)-3-pyridyl]-5-oxo-7-thioxo-6,8-diazaspiro[3.4]octan-8-yl]-2-fluoro-N-[2-(4-methylpiperazin-1-yl)ethyl]benzamide]",–,–,–,–,–,–,–,–,–
302,437,99.7,> 15100,2.2,> 15100,6.2,90.5,"CS(=O)(=O)N1CCC(Oc2ccc(N3C(=S)N(c4cnc(C#N)c(C(F)(F)F)c4)C(=O)C34CCC4)cc2)CC1 [Cpd 122, 5-[8-[4-[(1-methylsulfonyl-4-piperidyl)oxy]phenyl]-5-oxo-7-thioxo-6,8-diazaspiro[3.4]octan-6-yl]-3-(trifluoromethyl)pyridine-2-carbonitrile]",–,–,–,–,–,–,–,–,–
